Tests used:
[1] = Pro-oxidative effect: oxygen consumption with copper; conditions: for oxygen consumption: 10 mM, Cu2+ 10 mM, pH 7.2, 37 °C; for Rate of oxygen consumption: Table 1, 10 mM with Cu2+ 10 mM
Description: Oxygen consumption from solutions that contained AMTPs or other antioxidants such as cystine or ascorbic acid at 10 mM each, and copper sulfate 10 mM, was monitored by Biological Oxygen Monitor, model YSI 53.
AMTP molecules (10 mM) were incubated at pH=7.2 37° C. with Cu^2+ (10 mM). Oxygen consumption from the solution was measured with a Clark electrode (biological oxygen monitor). No oxygen consumption was observed from the solution. […] The oxygen consumption rate is referred to free radical production rate.

[2] = oil(mineral)/water and octanol/water partitioning; type: physicochemical; conditions: for logP: octanol/water, read-out: P (octanol/water) (converted); for P (oil/water): oil(mineral)/water
Description: The basic chemical structure of the compounds of the invention includes the group --P--N=S, which resembles the thiourea --N--C=S core, in which the central carbon atom has been replaced by a phosphorus atom, to give --N--P=S, which is the characteristic functional group the novel compounds of the invention. This functional group is based on a primary amido thionophosphate (AMTP) chemical bond. The specific compounds shown in FIG. 1, which are only representative of the numerous possible compounds, differ in their oil(mineral) /water and octanol/water partitioning: […]

[3] = Lipid hydroperoxides in partially oxidized SUV liposomes; conditions: 5 mM
Description: SUV liposomes were prepared from egg lecitin at 10% lipid concentration in a 50 ml HEPES buffer pH=6.9 according to already published procedures [Lichtenberg, D. and Barenholz. Y. (1988) Methods of Biochemical Analysis 33:337-462].
Lipid hydroperoxides were monitored by a modified micromolar sensitive spectroscopic method [Siddiqi, A. M. and Tappel, A. L. (1955) Chemist Analyst 44:52]. 50λ of lipids (liposomes or emulsion) were dissolved in 1 ml ethanol. 50λ of 50% potassium iodide solution were then added and the mixture was incubated for half an hour in the dark. The developed color was read in a spectrophotometer at 400 nm.
SUV Liposomes (12.5 mM) with certain degrees of oxidation were incubated with 5 mM AMTP molecules for period of 24 h. Peroxidation number (PN) was measured with potassium iodide in ethanol. AMTPs were able to decompose lipid hvdroperoxide and to reduce the peroxidation number (PN).

[4] = test system: BSA; test: BSA oxidation by NaOCl, fluorescence (tryptophan); conditions: NaOCl 1 mM
Description: BSA (0.5 mg/ml) in a 1 ml HEPES Buffer pH=7.2(50 mM) was incubated for 15 min with 1 mM sodium hypochlorite. Various concentrations of AMTP (compound B) were added to protect the protein. The sample was diluted in 3 ml of HEPES buffer and fluorescence was measured (lex =280 nm, lem =345 nm) in a JASCO FP-770 spectrotluorometer. Fluorescence decav was due to tryptophan and tyrosine oxidation. Alternatively, BAS (0.5 mg/ml) in HEPES buffer (1 ml) was incubated with 2,2'-azobis-(2-amidinopropane)-HCL (AAPH) (a water soluble peroxy radical initiator) (50 mM) at 37° C. for a period of 4 h. The sample was diluted with 2 ml of the buffer and fluorescence was measured [Hazell, L. and Stocker, R. (1993) Biochem. J. 290:165-172].
(§1) BSA's tryptophan oxidation and BSA's cystine oxidation were the models for protein damage by NaOCl (FIG. 11 and FIG. 12 respectively). BSA fluorescence intensity decreased following oxidative stress of NaOCI (1 mM). […] Out of the three AMTP compounds the most lipophilic (A) was best in preventing the damage and provided 94% protection on the protein.

[5] = test system: BSA; test: BSA's cystine oxidation by NaOCl (DTNB); conditions: NaOCl 1 mM
Description: BSA (0.5 mg/ml) in Imi HEPES buffer pH=7.2(50 mM) was incubated with sodium hypochlorite (1 mM) for 15 min. The protein was dialyzed for 2 h against 2×500 vol of HEPES buffer to remove free sodium hypochlorite. 301 DTNB 0.015 M in water was then added to the protein solution and color was measured at 420 nm. AMTPs were added to the protein sample to protect it against sodium hypochlorite [Hazell and Stocker, ibid.].
as §1

[6] = test system: Human skin fibroblasts; test: Chromium release from fibroblasts, killing by streptolysin S and glucose oxidase; type: cell-based
Description: Human skin fibroblasts were kindly supplied by the Department for Human Genetics at Hadassa Hospital in Jerusalem. The cells were grown in D-MEM medium supplemented with glutamine, penicillin, and streptomycin and 10% fetal calf serum [Ginsburg, I. et al. (1992) Inflammation 16:519-538]. Radiolabeled cell monolayers were prepared by the addition of 10 μCi/ml of [^51 Cr]NaCrO4 (New England Nuclear) to […] of trypsinized cells grown in 75-ml tissue culture bottles. The cells were then dispensed into 24-well tissue culture plates (Nunc, Roskilde, Denmark) and grown to confluency in a CO2 incubator.
Hydrogen peroxide flux was generated by the addition of glucose oxidase (0.5 units/ml) to the tissue culture media. Streptolysin S (SLS) of Croup A Streptococci (17 hemolytic units/ml) was employed as a membrane damaging agent.
Culture monolayers were treated for 1 h with the agents listed above. The cultures were monitored periodically for changes in cell morphology. To assess cytotoxicity, the supernatant fluids were removed and centrifuged at 2000 rpm for 2 min. The solubilized radioactivity was then determined in a Contron gamma counter. The total radioactivity associated with untreated controls was solubilized by the addition of 1 ml of 1% Triton X-100. (AMTPs influence on SLS hemolytic activity and on glucose oxidase activity was also tested. No influences were observed).
Fibroblasts in culture were exposed to a synergistic killing mechanism (streptolysin S in combination with an oxidant glucose oxidase) in a D-MEM culture medium that contained 1 mg/ml of glucose (about 0.5-1 mM of H2 O2 was produced after 1 hour of incubation at 37° C.). This system caused about 60% chromium released within an hour. […] The positive controls were DMTU and catalase.

[7] = Solubility in D-MEM medium; type: physicochemical; conditions: not soluble above this concentration
[8] = Hydroxyl radical deoxyribose assay
Description: A modification of the assay described by Halliwell et al. [Halliwell, B. et al. (1987) Analyt. Biochem. 165:215-219] was developed. 2-Deoxyribose was purchased form Sigma Chemical Co. All other chemicals for the assay were purchased from BDH Chemicals Ltd. Degradation of deoxy ribose was achieved bv a mixture of Fe^2+, EDTA, ascorbic acid and H2 O2. […] The reaction mixture was incubated for 1 h at 37° C. Scavenging of hydroxyl radical was done by various concentrations of AMTP (compound C), and color was developed by reaction with thiobarbituric acid as described [Halliwell, B. et al., ibid.]
A^-1 =A0^-1 {1+K[S]×(KDR [DR])^-1 } Equation 1
where A is the absorbance in the presence of a scavenger S (AMTPs) at a concentration [S] and A0 is the absorbance in the absence of a scavenger KDR =3.1*10^9 (reaction constant between deoxyribose and OH. radical) [Ebert, M., et al. (1965) Pulse Radiolysis, Academic Press, London] and [DR]=18 mM. […] Considering the fast reaction between H2 O2 and Fe^2+ --NTA and the slow reaction rate between AMTP and hydrogen peroxide as monitored in the ^31 P experiments (FIG. 5), the light decay may be exclusively attributed to hydroxyl radical scavenging.

[9] = literature; cited from earlier work

Structure (SMILES): O=C1O[C@H]([C@@H](O)CO)C(O)=C1O [Ascorbic acid]
- oxygen consumption [1]: significant oxygen consumption
- Rate of oxygen consumption [1]: 2.87e-05 M/min

Structure (SMILES): CCCCNP(=S)(OCC)OCC [Compound A, n-butylamido diethylthioiiophosphate]
- logP [2]: 0.788
- P (oil/water) [2]: 4.82
- reduction of PN, comparative ([3]; after 24 h): more effective in reducing PN
- protection of BSA fluorescence [4]: 94%
- protection of BSA's cystines [5]: strong protection
- inhibition at 2000 µM ([6]; Homo sapiens, Skin fibroblast, 1 h, 2 mM, read-out: protection against cell killing): 10%
- solubility [7]: ≤ 2000 µM

Structure (SMILES): CCOP(=S)(NCCC(=O)O)OCC [Compound C, 2-carboxyamidodiethyl thionophosphate]
- logP [2]: -0.357
- P (oil/water) [2]: 0.39
- reaction rate constant with hydroxyl radicals ([8]; calculated from equation 1, 18 mM deoxyribose): 1.5×10^9 M^-1 S^-1
- hydroxyl radical scavenging ([8]; deoxyribose degradation): potent hydroxyl radical scavengers
- reduction of PN, comparative ([3]; first few hours of incubation): more efficient in the first few hours
- toxic effects on the cell ([6]; concentrations of up to 20 mM, compound alone): did not show any toxic effects
- protection against cell killing ([6]; concentrations up to 10 mM, 60 min): 50-60%

Structure (SMILES): N[C@@H](CSSC[C@H](N)C(=O)O)C(=O)O [cystine]
- oxygen consumption [1]: significant oxygen consumption
- Rate of oxygen consumption [1]: 2.35e-06 M/min

Structure (SMILES): CNC(=S)NC [DMTU, N,N'-dimethyl thiourea]
- toxicity [9]: considered a toxic compound

Structure (SMILES): NC(=S)Nc1cccc2ccccc12 [α-naphthyl-thiourea]
- LD50 [9]: about 10 mg/kg

— patent US6200962A, “Thionophosphate derivatives, process for their preparation and pharmaceutical compositions containing them” (priority 1994, dated 2001)
